Paper PMC12027554, “Inhibition of ABCG2 by SCO-101 Enhances Chemotherapy Efficacy in Cancer” (International Journal of Molecular Sciences, 2025)
One block for each compound: values may come before it.

Legend:
HT29SN-38 cells [1] = assay: Cellular dye efflux assay (Hoechst 33342), resistant cells; type: cell-based, human; settings: SCO-101 20 µM, Ko-143 1 µM, PSC833 1 µM
Method: (§1) Twenty-four hours before the experiments, cells were seeded into 96-well Nunclon^TM plates at a density of 6000 (HT29), 7000 (PANC-1) or 8000 (LoVo) cells/well. The following day, cells were treated in triplicate with the relevant drugs at the indicated concentrations for 1 h. Next, 5 μg/mL Hoechst 33342 was added to the wells, and plates incubated at 37 °C for 30 min^−1 h. Cells were washed with cold PBS, treatments re-added and plates re-incubated at 37 °C for 30 min to 1 h. Plates were analyzed using a Celigo® (Nexcelom Bioscience, Lawrence, MA, USA) imaging cytometer. Data are expressed as percentages of fluorescence intensity, calculated through the following formula: % fluorescence intensity=Mean fluorescence intensity of sample/Mean fluorescence intensity of parental control×100
(§2) Fluorescent images were captured with an Olympus® IX71/TH4-200 microscope equipped with an Olympus® DP72 camera (Shinjuku, Tokyo, Japan), and cells were seeded at a 1.5 × 10^5 cells/well density and treated as described above.

HT29PAR cells [2] = assay: Cellular dye efflux assay (Hoechst 33342), parental cells; type: cell-based, human; settings: SCO-101 20 µM, Ko-143 1 µM
Method: as §1, §2

HT29SN-38 cells [3] = assay: 3H-SN-38 uptake in cell monolayers; type: cell-based, human; settings: HT29SN-38 monolayers; for cellular accumulation of 3H-SN-38: SCO-101 25 µM, Ko-143 0.5 µM, ZSQ 0.5 µM, vs control (HBSS)
Method: Cells were seeded at a density of 1.8 × 10^4 cells/well in 96-well plates and sub-cultured for 48 h. Drugs were dissolved in HBSS transport buffer (HBSS, 0.05% BSA, 10 mM HEPES, pH 7.4) at different concentrations. All treatments were investigated in technical triplicates. On the day of the experiments, the culture medium was exchanged with 100 μL transport buffer and cells incubated for 15 min at 37 °C. Next, the blank transport buffer was exchanged with 50 μL transport buffer containing the different compounds (2X of final concentrations) and incubated for an additional 15 min at 37 °C. The uptake experiment was started by adding 50 μL of 2 μCi/mL ^3H-SN38 and stopped after 15 min of incubation at 37 °C by removing the transport buffer from all wells. Cell monolayers were washed twice by adding/removing ice-cold transport buffer and lysed for 15 min at RT in 100 μL 0.1% TritonX-100. Cell lysates were transferred to scintillation vials containing 2 mL of scintillation fluid (Ultima Gold, PerkinElmer). Each well was washed with 100 μL purified water (milliQ), which was also transferred to respective scintillation vials. The radioactivity in each scintillation vial was measured by means of scintillation counting (Tri-Carb 2910 TR, PerkinElmer, Waltham, MA, USA).

HT29PAR cells [4] = assay: Cell viability assay (MTT / CCK-8), drug-sensitive HT29; type: cell-based, human
Method: (§3) Cells were seeded at a density of 0.2–1 × 10^4 cells/well into 96-well plates. One day after seeding, treatments were performed in triplicate for 72 h, or as otherwise indicated in the relevant panel/figure legend and kept at 37 °C/5% CO2. Growth medium alone (“untreated” cells) or DMSO was used as a control.
(§4) For MTT assays, media were replaced at the final timepoint with 100 μL of 1:10 MTT reagent (0.5 mg/mL in PBS) diluted in growth medium, and plates were incubated for 3 h. A total of 100 μL/well of stop buffer (50 g Sodium Dodecyl Sulfate, 245 mL ddH2O, 5 mL 1N HCl) was added and plates incubated for 24 h to let colored formazan crystals develop. Optical densities (ODs) were measured with a PowerWave^TM Microplate spectrophotometer (BioTek, Winooski, VT, USA) at 570 nm and 670 nm (background).
(§5) For CCK-8 assays, 100 μL of 1:10 CCK-8 reagent (pevonedistat-treated HT29 cells) diluted in medium was added to each well and cells incubated for 1–2 h at 37 °C. OD values were measured at 450 nm with a VersaMax microplate spectrophotometer (Molecular Devices, San Jose, CA, USA).
(§6) Background values were subtracted prior to further analysis. The percentage of cell viability was expressed as relative values versus untreated cells as determined by the various assays. EC50/IC50 values were calculated using GraphPad Prism (v10.4.1) and the in-built non-linear regression [log (inhibitor) vs. response—variable slope (four parameters)] calculation. For determination of synergy scores, the online tool SynergyFinder+ (https://synergyfinder.org access date 15 February 2025) was employed following 4 × 4- or 6 × 6-matrix dose-escalation cell viability experiments. Doses of drugs are indicated in the relevant figure legends and ranges have been chosen based on the response of cells to single-drug dose-dependent experiments. Synergy scores were calculated using the ZIP model, which takes the advantages of both the Loewe additivity and the Bliss independence models, aiming at a systematic assessment of various types of drug interaction patterns that may arise in a high-throughput drug combination screening.

HT29SN-38 cells [5] = assay: Cell viability assay (MTT / CCK-8), SN-38-resistant HT29; type: cell-based, human
Method: as §3, §4, §5, §6

HL-60PAR cells = assay: Cell viability assay, HL-60 parental; type: cell-based; settings: Homo sapiens, 96 h
Method: as §3, §6

HL-60ABCG2 cells = assay: Cell viability assay, ABCG2-expressing HL-60; type: cell-based; settings: Homo sapiens, 96 h
Method: as §3, §6

Structure (SMILES): COc1ccc2c3c([nH]c2c1)[C@H](CC(C)C)N1C(=O)[C@H](CCC(=O)OC(C)(C)C)NC(=O)[C@@H]1C3 [Ko-143]
- H33342 dye accumulation (HT29SN-38 cells [1]): restored
- H33342 dye accumulation (HT29PAR cells [2]): No change
- cellular accumulation of 3H-SN-38 (HT29SN-38 cells [3]): increased
- EC50 (HT29SN-38 cells [3]; read-out: EC50, 3H-SN-38 uptake (regarded as IC50 of ABCG2 inhibition)): 70 nM

Structure (SMILES): C/C=C/C[C@@H](C)C(=O)[C@H]1C(=O)N[C@@H](C(C)C)C(=O)N(C)CC(=O)N(C)[C@@H](CC(C)C)C(=O)N[C@@H](C(C)C)C(=O)N(C)[C@@H](CC(C)C)C(=O)N[C@@H](C)C(=O)N[C@H](C)C(=O)N(C)[C@@H](CC(C)C)C(=O)N(C)[C@@H](CC(C)C)C(=O)N(C)[C@@H](C(C)C)C(=O)N1C [PSC833]
- H33342 dye accumulation (HT29SN-38 cells [1]): No change

- IC50 (HT29PAR cells [4]; 72 h): 160 nM
- IC50 (HT29SN-38 cells [5]; 72 h): 7290 nM
Structure (SMILES): CCc1c2c(nc3ccc(O)cc13)-c1cc3c(c(=O)n1C2)COC(=O)[C@]3(O)CC [SN-38, reference compound]
- cell viability after 24 h single treatment and drug washout (HT29SN-38 cells [5]; SCO-101 15 μM or SN-38 0.5 μM alone, washout 48 h or 120 h): did not affect cell viability

Structure (SMILES): O[C@@H](COc1cccc2ncccc12)CN1CCN([C@@H]2c3ccccc3[C@@H]3[C@H](c4ccccc42)C3(F)F)CC1 [ZSQ]
- cellular accumulation of 3H-SN-38 (HT29SN-38 cells [3]): did not alter

Structure (SMILES): O=C1c2c(O)ccc(O)c2C(=O)c2c(NCCNCCO)ccc(NCCNCCO)c21 [mitoxantrone]
- IC50 (HL-60PAR cells): 40 nM
- IC50 (HL-60ABCG2 cells): 580 nM

- IC50 (HT29PAR cells [4]; Homo sapiens, HT-29, 72 h): 130 nM
- IC50 (HT29SN-38 cells [5]; Homo sapiens, HT-29, 72 h): 3230 nM
- IC50 (HL-60ABCG2 cells): > 1000 nM
Structure (SMILES): NS(=O)(=O)OC[C@@H]1C[C@@H](n2ccc3c(N[C@H]4CCc5ccccc54)ncnc32)C[C@@H]1O [pevonedistat]
- IC50 (HL-60PAR cells): 5.4 nM

- IC50 (HT29PAR cells [4]; Homo sapiens, HT-29, 72 h): 60 nM
- IC50 (HT29SN-38 cells [5]; Homo sapiens, HT-29, 72 h): 1360 nM
- IC50 (HL-60ABCG2 cells): > 1000 nM
Structure (SMILES): CC[C@@]1(O)C(=O)OCc2c1cc1n(c2=O)Cc2cc3c(CN(C)C)c(O)ccc3nc2-1 [topotecan]
